Series [1] concerns the target full-length FLAG-tagged B-Raf(V600E) (Homo sapiens (Human), UniProt P15056, V600E). The series is described as follows: BRAF V600E enzyme assay (TR-FRET competitive displacement). The settings on record: averaged IC50; 60 min, ambient temperature. In kind it is binding. From the text:
(§1) A competitive displacement assay was configured for B-Raf that monitors the amount of a fluorescently-tagged “tracer” bound to B-Raf via TR-FRET from an anti-tag Eu-labeled antibody also bound to B-Raf.
(§2) [formula] • where: • Xmax Average Uninhibited Controls • Xm Average Background
(§3) A 4-parameter logistic model was the fit to the POC data for each compound.

In series [2] the target is T1, BCRP (Homo sapiens (Human), UniProt Q9UNQ0). The series can be described thus: BCRP efflux ratio in BCRP transfected MDCKII cells. The settings on record: for BCRP efflux ratio: Papp(B−A)/Papp(A−B), BCRP transfected MDCKII cells, 1 μM; for efflux ratio at 2 h, 1 μM: dog.
Experimental: (§4) MDR1 LLC-PK1 and BCRP MDCKII Permeability Assay
(§5) BCRP transfected MDCKII cells were cultured and plated according to manufacturer's recommendations. Assay conditions included with and without the BCRP-specific inhibitor, KO0143, at a concentration of 0.3 μM to ascertain the contribution of BCRP to the efflux value of the test compound.
(§6) Both positive and negative controls were used to assess functionality of P-gp or BCRP efflux in the assays. […] Final organic concentration in the assay was 1%. All dosing solutions contained 10 μM lucifer yellow to monitor LLC-PK1 or MDCKII cell monolayer integrity.
(§7) For the apical to basolateral determination (A to B), 75 μL of the test article in transport buffer were added to the apical side of the individual transwells and 250 μL of basolateral media, without compound or lucifer yellow, were added to each well. For the basolateral to apical determination (B to A), 250 μL of test article in transport buffer were added to each well and 75 μL transport buffer, without compound or lucifer yellow, were added to each transwell. All tests were performed in triplicate, and each compound was tested for both apical to basolateral and basolateral to apical transport. The plates were incubated for 2 hours on a Lab-Line Instruments Titer Orbital Shaker (VWR, West Chester, Pa.) at 50 rpm and 37° C. with 5% CO2. All culture plates were removed from the incubator and 50 μL of media were removed from the apical and basolateral portion of each well and added to 150 μL of 1 μM labetalol in 2:1 acetonitrile (acetonitrile): H2O, v/v.
(§8) These values were accepted when found to be below 2% for apical to basolateral and 5% basolateral to apical flux across the MDR1-transfected LLC-PK1 or BCRP-transfected MDCKII cell monolayers. The plates were sealed and the contents of each well analyzed by LC-MS/MS. The compound concentrations were determined from the ratio of the peak areas of the compound to the internal standard (labetalol) in comparison to the dosing solution.
(§9) The LC-MS/MS system was comprised of an HTS-PAL autosampler (Leap Technologies, Carrboro, N.C.), an HP1200 HPLC (Agilent, Palo Alto, Calif.), and a MDS Sciex 4000 Q Trap system (Applied Biosystems, Foster City, Calif.). […] The total run time, including re-equilibration, for a single injection was 1.2 minutes. Mass spectrometric detection of the analytes was accomplished using the ion spray positive mode.
(§10) An efflux ratio is calculated from the mean apical to basolateral (A-B) Papp data and basolateral to apical (B-A) Papp data: Efflux ratio=Papp(B−A)/Papp(A−B)
In series [3] the target is T2, P-gp (MDR1) (Homo sapiens (Human), UniProt P08183). The series can be described thus: MDR1 efflux ratio in MDR1 transfected LLC-PK1 cells. The conditions noted are these: for MDR1 efflux ratio: Papp(B−A)/Papp(A−B), MDR1 transfected LLC-PK1 cells, 1 μM; for efflux ratio at 2 h, 1 μM: pig, LLC-PK1.
Experimental: (§11) Both LLC-PK1 and MDR1 transfected LLC-PK1 cells were cultured and plated according to manufacturer's recommendations with the exception that the passage media contained only 2% fetal bovine serum to extend passage time out to seven days.
as §6, §7, §8, §9, §10
Series [4] concerns LLC-PK1 or MDCKII cell monolayer. The series can be described thus: MDR1 LLC-PK1 and BCRP MDCKII permeability assay (Papp). The conditions noted are these: Papp; test article 1 μM, 2 hours, 37° C.
Experimental: as §4, §11, §5, §6, §7, §8, §9
(§12) where Cd, V, t and C0 are the detected concentration (μM), the volume on the dosing side (mL), the incubation time (s) and the initial dosing concentration (μM), respectively. The calculations for Papp were made for each replicate and then averaged.
Series [5] deals with GST-tagged B-Raf(V600K) (Homo sapiens, UniProt P15056, V600K). The series can be described thus: BRAF V600K enzyme assay (TR-FRET competitive displacement). It is filed as binding. The conditions noted are these: averaged IC50; 60 min, ambient temperature.
Text: as §1, §2, §3

Series [6] in a line: PK (free brain-to-free plasma ratio) (mouse). In kind it is in vivo. The settings on record: male CD-1 mice, oral gavage 10 mg/kg, (B/P)*(Bfu/Pfu). On the procedure:
PK (Free Brain-to-Free Plasma Ratio) (Mouse)
The ability of representative compounds to penetrate the BBB in mice was determined by evaluating the unbound brain-to-unbound plasma (also referred to as free brain-to-free plasma) concentration ratio in male CD-1 mice.
Brain samples were stored at −20±5° C. prior to analysis. Concentrations of test compound in mouse brain homogenate were determined by liquid chromatography tandem mass spectrometry (LC-MS/MS) following protein precipitation with acetonitrile. A 12-point calibration curve, ranging from 0.5 to 10,000 ng/mL, was prepared in duplicate. A solution of 400 μg/mL of test compound in dimethyl sulfoxide (DMSO) was serially diluted (3-fold) in 100% DMSO, and then 2.5 μL of each standard solution was added to 100 μL of naïve male CD-1 mice brain homogenate. To mimic the extraction in the standard curve, 2.5 μL of DMSO was added to all test samples. […]
Brain-to-plasma ratios were calculated using the concentration of compound measured in the brain divided by the concentration of compound measured in the plasma. […] Free brain-to-free plasma ratios were calculated by multiplying the brain-to-plasma ratio by the in vitro brain homogenate free fraction divided by the in vitro plasma free fraction using the following equation: (B/P)*(Bfu/Pfu).

Series [7] is described as follows: MDR1 LLC-PK1 and BCRP MDCKII permeability assay (Papp).
Experimental: as §4, §11, §5, §6, §7, §8, §9, §12
In series [8] the test system is BCRP. The settings on record: reported by Mittapalli et al.; cited from earlier work.
The test system of series [9] is LLC-PK1 or MDCKII cell monolayer.
Experimental: as §4, §11, §5, §6, §7, §8, §9, §12
Series [10] addresses T2, P-gp (MDR1). The settings on record: pig, LLC-PK1, 2 h, 1 μM.
Experimental: as §11, §6, §7, §8, §9, §10
Series [11] deals with T1, BCRP. The conditions noted are these: dog, 2 h, 1 μM.
Experimental: as §4, §5, §6, §7, §8, §9, §10

Read-outs that look alike come from different tables or passages of the source.

T1 sequence (Q9UNQ0 whole entry, species assumed): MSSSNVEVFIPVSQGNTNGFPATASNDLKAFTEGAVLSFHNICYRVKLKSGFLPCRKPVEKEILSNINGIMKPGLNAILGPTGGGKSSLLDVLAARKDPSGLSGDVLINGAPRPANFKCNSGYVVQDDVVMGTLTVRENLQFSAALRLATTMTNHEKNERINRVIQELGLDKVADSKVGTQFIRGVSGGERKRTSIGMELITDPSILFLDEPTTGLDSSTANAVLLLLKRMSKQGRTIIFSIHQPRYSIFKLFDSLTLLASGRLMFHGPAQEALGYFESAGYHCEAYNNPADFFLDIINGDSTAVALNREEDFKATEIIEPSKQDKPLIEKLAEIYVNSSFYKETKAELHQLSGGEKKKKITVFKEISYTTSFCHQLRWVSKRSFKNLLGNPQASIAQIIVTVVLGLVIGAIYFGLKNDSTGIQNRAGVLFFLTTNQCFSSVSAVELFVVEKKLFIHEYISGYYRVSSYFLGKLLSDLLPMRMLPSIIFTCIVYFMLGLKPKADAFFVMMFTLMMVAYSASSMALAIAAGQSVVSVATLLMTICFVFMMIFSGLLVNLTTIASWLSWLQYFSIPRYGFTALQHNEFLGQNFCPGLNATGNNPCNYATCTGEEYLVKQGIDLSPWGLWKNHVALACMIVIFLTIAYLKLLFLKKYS
T2 sequence (P08183 whole entry, species assumed): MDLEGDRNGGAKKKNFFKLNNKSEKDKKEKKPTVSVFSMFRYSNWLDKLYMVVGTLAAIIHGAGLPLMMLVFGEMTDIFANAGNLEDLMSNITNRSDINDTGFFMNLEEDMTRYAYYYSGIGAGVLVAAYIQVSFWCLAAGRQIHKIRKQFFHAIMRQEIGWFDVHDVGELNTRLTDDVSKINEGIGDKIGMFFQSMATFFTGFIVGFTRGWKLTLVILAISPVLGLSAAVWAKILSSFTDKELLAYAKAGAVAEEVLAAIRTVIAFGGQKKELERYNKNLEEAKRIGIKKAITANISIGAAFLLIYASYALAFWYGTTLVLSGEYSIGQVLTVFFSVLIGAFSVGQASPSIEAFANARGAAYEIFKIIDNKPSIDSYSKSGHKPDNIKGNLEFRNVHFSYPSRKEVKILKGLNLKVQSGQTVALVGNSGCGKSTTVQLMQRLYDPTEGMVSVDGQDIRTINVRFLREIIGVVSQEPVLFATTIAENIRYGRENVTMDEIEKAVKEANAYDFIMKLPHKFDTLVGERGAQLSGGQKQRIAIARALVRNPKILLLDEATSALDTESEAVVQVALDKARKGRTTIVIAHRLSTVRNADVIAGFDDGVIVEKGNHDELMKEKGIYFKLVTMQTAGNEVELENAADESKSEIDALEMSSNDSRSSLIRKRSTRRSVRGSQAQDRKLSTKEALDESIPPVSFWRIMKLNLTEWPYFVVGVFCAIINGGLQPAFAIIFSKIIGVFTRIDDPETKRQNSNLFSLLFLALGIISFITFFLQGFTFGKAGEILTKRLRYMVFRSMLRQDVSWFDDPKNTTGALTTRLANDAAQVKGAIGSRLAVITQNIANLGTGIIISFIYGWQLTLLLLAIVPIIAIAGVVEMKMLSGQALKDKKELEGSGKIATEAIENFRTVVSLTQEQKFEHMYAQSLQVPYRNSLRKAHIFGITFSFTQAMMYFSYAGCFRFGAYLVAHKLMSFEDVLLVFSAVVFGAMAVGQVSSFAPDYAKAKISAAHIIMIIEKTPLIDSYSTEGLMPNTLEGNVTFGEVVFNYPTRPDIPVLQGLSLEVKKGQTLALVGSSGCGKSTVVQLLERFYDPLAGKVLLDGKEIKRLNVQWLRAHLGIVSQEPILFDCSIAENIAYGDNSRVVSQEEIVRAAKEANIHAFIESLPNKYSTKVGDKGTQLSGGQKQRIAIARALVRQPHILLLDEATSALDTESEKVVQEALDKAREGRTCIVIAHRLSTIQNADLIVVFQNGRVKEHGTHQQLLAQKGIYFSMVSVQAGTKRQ
full-length FLAG-tagged B-Raf(V600E), sequence (P15056 whole entry V600E): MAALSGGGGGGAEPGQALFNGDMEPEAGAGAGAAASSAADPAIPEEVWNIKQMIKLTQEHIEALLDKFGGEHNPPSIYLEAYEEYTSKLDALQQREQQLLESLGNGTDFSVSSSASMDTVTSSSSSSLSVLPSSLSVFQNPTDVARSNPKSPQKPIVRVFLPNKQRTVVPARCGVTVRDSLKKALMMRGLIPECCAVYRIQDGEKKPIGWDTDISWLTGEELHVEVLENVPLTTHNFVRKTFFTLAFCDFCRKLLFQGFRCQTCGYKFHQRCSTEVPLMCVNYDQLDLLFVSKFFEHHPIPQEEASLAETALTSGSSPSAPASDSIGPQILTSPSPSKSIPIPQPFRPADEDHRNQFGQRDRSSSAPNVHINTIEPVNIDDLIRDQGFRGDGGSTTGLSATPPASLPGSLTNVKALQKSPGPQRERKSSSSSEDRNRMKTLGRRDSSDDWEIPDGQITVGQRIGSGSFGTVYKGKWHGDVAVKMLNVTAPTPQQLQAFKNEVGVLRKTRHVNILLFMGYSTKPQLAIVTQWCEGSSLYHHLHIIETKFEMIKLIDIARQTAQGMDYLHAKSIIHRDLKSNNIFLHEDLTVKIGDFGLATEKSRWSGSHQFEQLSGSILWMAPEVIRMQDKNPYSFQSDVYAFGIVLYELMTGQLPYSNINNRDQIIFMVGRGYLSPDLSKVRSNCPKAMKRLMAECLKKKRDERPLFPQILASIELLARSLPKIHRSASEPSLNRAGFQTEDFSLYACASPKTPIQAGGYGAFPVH
GST-tagged B-Raf(V600K), sequence (P15056 2-766 V600K limits assumed): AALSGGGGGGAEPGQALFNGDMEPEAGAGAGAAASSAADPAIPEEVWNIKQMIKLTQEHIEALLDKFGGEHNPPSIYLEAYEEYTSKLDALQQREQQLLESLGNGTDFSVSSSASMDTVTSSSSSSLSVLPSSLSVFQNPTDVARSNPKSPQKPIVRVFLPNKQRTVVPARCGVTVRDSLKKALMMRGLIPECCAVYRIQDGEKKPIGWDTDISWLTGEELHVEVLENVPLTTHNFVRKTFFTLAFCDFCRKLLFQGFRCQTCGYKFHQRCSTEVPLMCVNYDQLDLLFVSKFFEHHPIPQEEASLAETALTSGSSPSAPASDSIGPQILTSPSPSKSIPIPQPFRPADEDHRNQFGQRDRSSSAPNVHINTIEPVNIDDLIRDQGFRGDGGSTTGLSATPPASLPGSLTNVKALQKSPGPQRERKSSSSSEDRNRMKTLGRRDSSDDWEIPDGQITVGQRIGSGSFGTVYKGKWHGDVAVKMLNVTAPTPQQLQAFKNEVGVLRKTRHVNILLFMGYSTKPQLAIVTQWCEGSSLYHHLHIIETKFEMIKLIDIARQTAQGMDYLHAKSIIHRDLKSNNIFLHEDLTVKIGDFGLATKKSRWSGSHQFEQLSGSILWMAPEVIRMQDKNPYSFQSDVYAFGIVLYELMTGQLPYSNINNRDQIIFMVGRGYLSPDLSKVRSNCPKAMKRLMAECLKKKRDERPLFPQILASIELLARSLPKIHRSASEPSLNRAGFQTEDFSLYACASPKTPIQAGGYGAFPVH

Consider “N-(3-chloro-4-((3,5- dimethyl-4-oxo-3,4- dihydroquinazolin-6- yl)amino)-5- fluoropyridin-2- yl)ethanesulfonamide [Example 45]”, for which the IC50 in [1] was 137 nM. In addition, the BCRP efflux ratio in [2] came out at 11.29. In series [3], the MDR1 efflux ratio turned out to be 2.47. The “Permeability (*10^−6 cm/s)” value in [4] is listed as 16.56 *10^−6 cm/s.

For “N-(4-((3,5-dimethyl-4- oxo-3,4- dihydroquinazolin-6- yl)amino)-3,5- difluoropyridin-2- yl)ethanesulfonamide [Example 43]”, the half-inhibitory concentration (IC50) in [1] came out at 260 nM. In addition, the BCRP efflux ratio in series [2] stood at 26.02. For the same compound, the MDR1 efflux ratio in [3] came to 5.24. Further, in series [4], the “Permeability (*10^−6 cm/s)” value is listed as 8.75 *10^−6 cm/s.

Take `CCCS(=O)(=O)Nc1ncc(F)c(Oc2ccc3ncn(C)c(=O)c3c2C)c1Cl` [Example 63, N-(3-chloro-4-((3,5-dimethyl-4-oxo-3,4-dihydroquinazolin-6-yl)oxy)-5-fluoropyridin-2-yl)propane-1-sulfonamide]: the IC50 in [1] stood at 2.8 nM; in series [5] it was 2.4 nM. Besides, the Kp,uu (unbound brain-to-unbound plasma ratio) in [6] is 0.34 to 0.4. For the same compound, the efflux ratio at 2 h, 1 μM in [2] is 7.7; in [3] it was 1.3. Also, the Papp at 2 h, 1 μM in series [7] turned out to be 26.1 ×10⁻⁶ cm/s.

Consider `CC(C)(C)c1nc(-c2cccc(NS(=O)(=O)c3c(F)cccc3F)c2F)c(-c2ccnc(N)n2)s1` [dabrafenib], for which, in series [8], the BCRP efflux ratio was 21.0.

In turn, “N-(3-chloro-4-((3,5- dimethyl-4-oxo-3,4- dihydroquinazolin-6- yl)amino)-5- fluoropyridin-2-yl)-1- cyclopropyl- methanesulfonamide [Example 47]” displayed an IC50 in [1] of 41.7 nM. Moreover, the BCRP efflux ratio in series [2] was determined as 7.93. In addition, the MDR1 efflux ratio in [3] stood at 1.84. The “Permeability (*10^−6 cm/s)” value in series [4] is recorded as 25.7 *10^−6 cm/s.

As to “N-(2-cyano-3-((3,5- dimethyl-4-oxo-3,4- dihydroquinazolin-6- yl)amino)phenyl) propane-1-sulfonamide [Example 53]”, in series [1], the IC50 worked out at 9.4 nM. Besides, in [9] (2 h, 1 μM), the “Permeability (*10^−6 cm/s)” value is reported as 27.13 *10^−6 cm/s. Moreover, the MDR1 efflux ratio in series [10] came to 2.6. The BCRP efflux ratio in [11] was 22.97.

On to `CCCS(=O)(=O)Nc1ccc(F)c(Oc2ccc3ncn(C)c(=O)c3c2C)c1Cl` [Example 55, N-{2-chloro-3-[(3,5-dimethyl-4-oxo-3,4-dihydroquinazolin-6-yl)oxy]-4-fluorophenyl}propane-1-sulfonamide], for which the half-maximal inhibitory concentration (IC50) in series [1] was 5.4 nM; in [5] it was 3.1 nM. For the same compound, in [6], the Kp,uu (unbound brain-to-unbound plasma ratio) was in the range of 0.46 to 0.51. Also, the efflux ratio at 2 h, 1 μM in [2] was determined as 0.83; in series [3] it was 1.1. Besides, the apparent permeability coefficient (Papp) at 2 h, 1 μM in series [7] is 23.8 ×10⁻⁶ cm/s.

As to “N-(3-((3,5-dimethyl-4- oxo-3,4- dihydroquinazolin-6- yl)amino)-2-fluoro-5- methylphenyl)propane- 1-sulfonamide [Example 46]”, the half-inhibitory concentration (IC50) in [1] came out at 148 nM. The “Permeability (*10^−6 cm/s)” value in series [9] (2 h, 1 μM) was 30.74 *10^−6 cm/s. Also, in series [10], the MDR1 efflux ratio was found to be 1.43. In addition, the BCRP efflux ratio in [11] is 1.48.

With “N-(2-chloro-3-((3,5- dimethyl-4-oxo-3,4- dihydroquinazolin-6- yl)amino)-4- fluorophenyl) ethanesulfonamide [Example 52]”, the IC50 in series [1] was 226 nM. Further, the BCRP efflux ratio in series [2] is 1.28. Also, in series [3], the MDR1 efflux ratio is 1.76. Further, the “Permeability (*10^−6 cm/s)” value in [4] is recorded as 28.91 *10^−6 cm/s.

Consider `CCCS(=O)(=O)Nc1cc(Cl)cc(Nc2ccc3ncn(C)c(=O)c3c2C)c1Cl` [Example 48, N-(2,5-dichloro-3-((3,5-dimethyl-4-oxo-3,4-dihydroquinazoli-6-yl)amino)phenyl) propane-1-sulfonamide], for which, in [9], the “Permeability (*10^−6 cm/s)” value is given as 25.83 *10^−6 cm/s.

Consider `CCN(C)S(=O)(=O)Nc1ccc(F)c(Nc2ccc3ncn(C)c(=O)c3c2C)c1Cl` [Example 54, N-(2-chloro-3-((3,5-dimethyl-4-oxo-3,4-dihydroquinazolin-6-yl)amino)-4-fluorophenyl)-N-ethyl-N-methylamino-1-sulfonamide], for which the “Permeability (*10^−6 cm/s)” value in series [9] is on record as 35.81 *10^−6 cm/s.

As to “N-(2-chloro-3-((3,5- dimethyl-4-oxo-3,4- dihydroquinazolin-6- yl)amino)-4- fluorophenyl) benzenesulfonamide [Example 49]”, the IC50 in [1] stood at 3.95 nM. In addition, in series [2], the BCRP efflux ratio turned out to be 0.97. In addition, the MDR1 efflux ratio in series [3] stood at 1.24. Besides, the “Permeability (*10^−6 cm/s)” value in [4] was 30.68 *10^−6 cm/s.

Turning to “N-(2-chloro-3-((3,5- dimethyl-4-oxo-3,4- dihydroquinazolin-6- yl)amino)-5- fluorophenyl)-3- fluoropropane-1- sulfonamide [Example 44]”, in series [1], the IC50 is 6.05 nM. In addition, the BCRP efflux ratio in series [2] was 2.84. Further, in series [3], the MDR1 efflux ratio stood at 1.05. Besides, in series [4], the “Permeability (*10^−6 cm/s)” value is 24.2 *10^−6 cm/s.

Compound “N-(2-chloro-3-((3,5- dimethyl-4-oxo-3,4- dihydroquinazolin-6- yl)amino)-4- fluorophenyl)-2- methylpropane-1- sulfonamide [Example 51]” had an IC50 in series [1] of 63.4 nM. Besides, the BCRP efflux ratio in series [2] worked out at 1.28. Besides, the MDR1 efflux ratio in series [3] was 1.64. In [4], the “Permeability (*10^−6 cm/s)” value is 27.16 *10^−6 cm/s.

For the compound `Cc1c(Nc2c(F)cnc(NS(=O)(=O)CC3CC3)c2F)ccc2ncn(C)c(=O)c12` [Example 42, 1-cyclopropyl-N-(4-((3,5-dimethyl-4-oxo-3,4-dihydroquinazolin-6-yl)amino)-3,5-difluoropyridin-2-yl) methanesulfonamide], the 50% inhibitory concentration (IC50) in series [1] turned out to be 60.3 nM. Further, the BCRP efflux ratio in [2] is listed as 23.73. The MDR1 efflux ratio in [3] is reported as 5.26. Also, the “Permeability (*10^−6 cm/s)” value in [4] is given as 18.35 *10^−6 cm/s.

Compound “N-(2-chloro-3-((3,5- dimethyl-4-oxo-3,4- dihydroquinazolin-6- yl)amino)-4- fluorophenyl)-1- cyclopropyl- methanesulfonamide [Example 50]” registered an IC50 in series [1] of 66.1 nM. Also, the BCRP efflux ratio in series [2] is reported as 1.13. Besides, the MDR1 efflux ratio in series [3] is given as 1.54. Further, in [4], the “Permeability (*10^−6 cm/s)” value was 21.88 *10^−6 cm/s.

The record behind these values is US11634409B2, “Compounds for the treatment of BRAF-associated diseases and disorders” (Array BioPharma Inc., priority 2019, dated 2023).
